This passage reports insulin secretion and glucose-stimulated insulin secretion results from patent US8598146B2, “Methods for identifying modulators of protein kinase C-epsilon (PKCε) and method of treatment of aberrant glucose metabolism associated therewith” (Garvan Institute of Medical Research, priority 2003, dated 2013).

Test [1] deals with pancreatic beta cells. To be noted: 100 nM glyburide in the presence of 20 mM glucose; cited from earlier work.
The subject of test [2] is pancreatic islets. The experiment in a line: glucose-stimulated insulin secretion from pancreatic islets with carbamylcholine (FIG. 13). Type of test: cell-based, mouse. To be noted: 0.1 mM carbamylcholine with 20 mM glucose; islets from wild type and PKCε−/− mice.

As to `COc1ccc(Cl)cc1C(=O)NCCc1ccc(S(=O)(=O)NC(=O)NC2CCCCC2)cc1` [glyburide], in test [1], the insulin secretion entry is given as “enhances insulin secretion”.

For the compound `C[N+](C)(C)CCOC(N)=O.[Cl-]` [carbamylcholine], the glucose-stimulated insulin secretion result in test [2] was “potentiation”.
